In brackets after ≈: the same amount, converted by molar mass. Activity calls are given as the source filed them. The calls are words filed in the database; no cut-off is given here.
Key:
Enterococcus faecalis = experiment: Antibacterial activity against Enterococcus faecalis ATCC 29212 assessed as inhibition of bacterial growth incubated for 18 hrs by broth microdilution method; assay type: functional
Pseudomonas aeruginosa = experiment: Antibacterial activity against Pseudomonas aeruginosa ATCC 27853 assessed as inhibition of bacterial growth incubated for 18 hrs by broth microdilution method; assay type: functional
Staphylococcus aureus [1] = experiment: Antibacterial activity against vancomycin-intermediate Staphylococcus aureus ATCC 700699 assessed as inhibition of bacterial growth incubated for 18 hrs by broth microdilution method; assay type: functional
[2] = test system: Staphylococcus epidermidis; experiment: Antibacterial activity against linezolid-resistant Staphylococcus epidermidis NIL 4399/19 assessed as inhibition of bacterial growth incubated for 18 hrs by broth microdilution method; assay type: functional
Enterococcus faecium = experiment: Antibacterial activity against vancomycin-resistant Enterococcus faecium assessed as inhibition of bacterial growth incubated for 18 hrs by broth microdilution method; assay type: functional
[3] = Cytotoxicity against human BJ cells assessed as reduction in cell viability incubated for 24 hrs by MTT assay; assay type: toxicity, cell-based
Streptococcus pneumoniae [4] = experiment: Antibacterial activity against Streptococcus pneumoniae ATCC 49619 assessed as inhibition of bacterial growth incubated for 18 hrs by broth microdilution method; assay type: functional
[5] = test system: Staphylococcus epidermidis; experiment: Antibacterial activity against methicillin-susceptible Staphylococcus epidermidis ATCC 12228 assessed as inhibition of bacterial growth incubated for 18 hrs by broth microdilution method; assay type: functional
Staphylococcus aureus [6] = experiment: Antibacterial activity against methicillin-susceptible Staphylococcus aureus ATCC 25923 assessed as inhibition of bacterial growth incubated for 18 hrs by broth microdilution method; assay type: functional
[7] = test system: Staphylococcus epidermidis; experiment: Antibacterial activity against biofilm producer Staphylococcus epidermidis ATCC 35984 assessed as inhibition of bacterial growth incubated for 18 hrs by broth microdilution method; assay type: functional
Staphylococcus aureus [8] = experiment: Antibacterial activity against biofilm producer Staphylococcus aureus RN450 assessed as inhibition of bacterial growth incubated for 18 hrs by broth microdilution method; assay type: functional
Klebsiella pneumoniae = experiment: Antibacterial activity against Klebsiella pneumoniae ATCC 700603 assessed as inhibition of bacterial growth incubated for 18 hrs by broth microdilution method; assay type: functional
[9] = Induction of hemolysis in horse RBC at 200 uM incubated for 1 hr; assay type: toxicity, cell-based, Equus caballus, Erythrocyte; conditions: horse red blood cells (erythrocytes), read-out: Activity
Escherichia coli = experiment: Antibacterial activity against Escherichia coli ATCC 25922 assessed as inhibition of bacterial growth incubated for 18 hrs by broth microdilution method; assay type: functional
[10] = Cytotoxicity against human MRC5 cells assessed as reduction in cell viability incubated for 24 hrs by MTT assay; assay type: toxicity, cell-based
Staphylococcus aureus [11] = experiment: Antibacterial activity against methicillin-resistant Staphylococcus aureus clinical strain 19449 assessed as inhibition of bacterial growth incubated for 18 hrs by broth microdilution method; assay type: functional
Streptococcus pneumoniae [12] = experiment: Antibacterial activity against Oxacillin-resistant Streptococcus pneumoniae O/19/4541 assessed as inhibition of bacterial growth incubated for 18 hrs by broth microdilution method; assay type: functional
[13] = Cytotoxicity against human BJ cells assessed as cell viability at 25 ug/ml incubated for 24 hrs by MTT assay; assay type: toxicity, cell-based; conditions: at 25 µg/mL, read-out: Activity

SMILES | MIC (Enterococcus faecalis) [µg/mL] | Activity (Pseudomonas aeruginosa) | MIC (Staphylococcus aureus [1]) [µg/mL] | MIC [2] [µg/mL] | MIC (Enterococcus faecium) [µg/mL] | IC50 at 24 h [3] [µg/mL] | MIC (Streptococcus pneumoniae [4]) [µg/mL] | MIC [5] [µg/mL] | MIC (Staphylococcus aureus [6]) [µg/mL] | MIC [7] [µg/mL] | MIC (Staphylococcus aureus [8]) [µg/mL] | Activity (Klebsiella pneumoniae) | hemolysis at 1 h, 200 µM [9] [%] | Activity (Escherichia coli) | IC50 at 24 h [10] [µg/mL] | MIC (Staphylococcus aureus [11]) [µg/mL] | MIC (Streptococcus pneumoniae [12]) [µg/mL] | viability at 24 h, 25 ug/ml [13] [%]
O=C(NCC1CCN(CCC(Oc2ccc(C(F)(F)F)cc2)c2ccccc2)CC1)Nc1cccc(Cl)c1 (racemic) | 3.12 (≈ 5.72 µM) | inactive | 6.25 (≈ 11.4 µM) | 3.12 (≈ 5.72 µM) | 0.78 (≈ 1.43 µM) | 3.12 (≈ 5.72 µM) | 12.5 (≈ 22.9 µM) | 1.56 (≈ 2.86 µM) | 3.12 (≈ 5.72 µM) | 1.56 (≈ 2.86 µM) | 1.56 (≈ 2.86 µM) | inactive | 5 | inactive | 3.12 (≈ 5.72 µM) | 3.12 (≈ 5.72 µM) | – | –
O=C(Nc1cccc(F)c1)NC1CCN(CCC(Oc2ccc(C(F)(F)F)cc2)c2ccccc2)CC1 (centres undefined) | 3.12 (≈ 6.06 µM) | inactive | 6.25 (≈ 12.1 µM) | 3.12 (≈ 6.06 µM) | 0.78 (≈ 1.51 µM) | – | 6.25 (≈ 12.1 µM) | 3.12 (≈ 6.06 µM) | 6.25 (≈ 12.1 µM) | 3.12 (≈ 6.06 µM) | 1.56 (≈ 3.03 µM) | inactive | – | inactive | – | 3.12 (≈ 6.06 µM) | – | –
O=C(Nc1cccc(Cl)c1)NC1CCN(CCC(Oc2ccccc2Cl)c2ccccc2)CC1 (racemic) | 6.25 (≈ 12.5 µM) | inactive | 6.25 (≈ 12.5 µM) | 3.12 (≈ 6.27 µM) | 6.25 (≈ 12.5 µM) | – | 12.5 (≈ 25.1 µM) | 6.25 (≈ 12.5 µM) | 6.25 (≈ 12.5 µM) | 3.12 (≈ 6.27 µM) | 1.56 (≈ 3.13 µM) | inactive | – | inactive | – | 6.25 (≈ 12.5 µM) | – | –
O=C(NCC1CCN(CCC(Oc2ccc(Cl)cc2)c2ccccc2)CC1)Nc1cccc(Cl)c1 (racemic) | 3.12 (≈ 6.1 µM) | inactive | 3.12 (≈ 6.1 µM) | 6.25 (≈ 12.2 µM) | 0.39 (≈ 0.761 µM) | 12.5 (≈ 24.4 µM) | 6.25 (≈ 12.2 µM) | 3.12 (≈ 6.1 µM) | 6.25 (≈ 12.2 µM) | 3.12 (≈ 6.1 µM) | 3.12 (≈ 6.1 µM) | inactive | 6 | inactive | 3.12 (≈ 6.1 µM) | 6.25 (≈ 12.2 µM) | – | –
O=C(Nc1cccc(Cl)c1)NC1CCN(CCC(Oc2ccc(F)cc2)c2ccccc2)CC1 (racemic) | 6.25 (≈ 13 µM) | inactive | 6.25 (≈ 13 µM) | 6.25 (≈ 13 µM) | 1.56 (≈ 3.24 µM) | – | 12.5 (≈ 25.9 µM) | 6.25 (≈ 13 µM) | 6.25 (≈ 13 µM) | 3.12 (≈ 6.48 µM) | 3.12 (≈ 6.48 µM) | inactive | – | inactive | – | 6.25 (≈ 13 µM) | – | –
CN[C@H](CC(C)C)C(=O)N[C@H]1C(=O)N[C@@H](CC(N)=O)C(=O)N[C@H]2C(=O)N[C@H]3C(=O)N[C@H](C(=O)N[C@H](C(=O)O)c4cc(O)cc(O)c4-c4cc3ccc4O)[C@H](O)c3ccc(c(Cl)c3)Oc3cc2cc(c3O[C@@H]2O[C@H](CO)[C@@H](O)[C@H](O)[C@H]2O[C@H]2C[C@](C)(N)[C@H](O)[C@H](C)O2)Oc2ccc(cc2Cl)[C@H]1O [VANCOMYCIN] | 0.78 (≈ 0.538 µM) | – | 6.25 (≈ 4.31 µM) | – | 50 (≈ 34.5 µM) | – | 0.39 (≈ 0.269 µM) | 0.78 (≈ 0.538 µM) | 0.78 (≈ 0.538 µM) | 0.78 (≈ 0.538 µM) | – | – | – | – | – | 0.78 (≈ 0.538 µM) | 0.1 (≈ 0.069 µM) | –
COc1cccc2c1C(=O)c1c(O)c3c(c(O)c1C2=O)C[C@@](O)(C(=O)CO)C[C@@H]3O[C@H]1C[C@H](N)[C@H](O)[C@H](C)O1 [DOXORUBICIN] | – | – | – | – | – | 0.78 (≈ 1.44 µM) | – | – | – | – | – | – | – | – | 0.39 (≈ 0.718 µM) | – | – | –
O=C(Nc1cccc(Cl)c1)NC1CCN(CCC(Oc2cccc(Cl)c2)c2ccccc2)CC1 (racemic) | 3.12 (≈ 6.27 µM) | inactive | 3.12 (≈ 6.27 µM) | 3.12 (≈ 6.27 µM) | 1.56 (≈ 3.13 µM) | > 25 | 6.25 (≈ 12.5 µM) | 3.12 (≈ 6.27 µM) | 3.12 (≈ 6.27 µM) | 1.56 (≈ 3.13 µM) | 1.56 (≈ 3.13 µM) | inactive | < 1 | inactive | 6.25 (≈ 12.5 µM) | 3.12 (≈ 6.27 µM) | – | 91
O=C(Nc1cccc(Cl)c1)N[C@H]1CCN(CCC(Oc2ccc(C(F)(F)F)cc2)c2ccccc2)C1 (some centres undefined) | 3.12 (≈ 6.03 µM) | inactive | 1.56 (≈ 3.01 µM) | 1.56 (≈ 3.01 µM) | 0.78 (≈ 1.51 µM) | 6.25 (≈ 12.1 µM) | 6.25 (≈ 12.1 µM) | 1.56 (≈ 3.01 µM) | 3.12 (≈ 6.03 µM) | 3.12 (≈ 6.03 µM) | 1.56 (≈ 3.01 µM) | inactive | 10 | inactive | 3.12 (≈ 6.03 µM) | 3.12 (≈ 6.03 µM) | – | –
O=C(Nc1cccc(Cl)c1)N[C@H]1CCN(CCC(Oc2cccc(Cl)c2)c2ccccc2)C1 (some centres undefined) | 3.12 (≈ 6.45 µM) | inactive | 3.12 (≈ 6.45 µM) | 3.12 (≈ 6.45 µM) | 0.78 (≈ 1.61 µM) | 6.25 (≈ 12.9 µM) | 6.25 (≈ 12.9 µM) | 3.12 (≈ 6.45 µM) | 3.12 (≈ 6.45 µM) | 3.12 (≈ 6.45 µM) | 3.12 (≈ 6.45 µM) | inactive | 8 | inactive | 3.12 (≈ 6.45 µM) | 3.12 (≈ 6.45 µM) | – | –
O=C(NCC1CCN(CCC(Oc2cccc(Cl)c2)c2ccccc2)CC1)Nc1cccc(Cl)c1 (racemic) | 3.12 (≈ 6.1 µM) | inactive | 3.12 (≈ 6.1 µM) | 6.25 (≈ 12.2 µM) | 1.56 (≈ 3.04 µM) | 6.25 (≈ 12.2 µM) | 6.25 (≈ 12.2 µM) | 1.56 (≈ 3.04 µM) | 6.25 (≈ 12.2 µM) | 3.12 (≈ 6.1 µM) | 3.12 (≈ 6.1 µM) | inactive | 6 | inactive | 3.12 (≈ 6.1 µM) | 6.25 (≈ 12.2 µM) | – | –
O=C(Nc1cccc(Cl)c1)N[C@H]1CCN(CCC(Oc2ccc(Cl)cc2)c2ccccc2)C1 (some centres undefined) | 3.12 (≈ 6.45 µM) | inactive | 1.56 (≈ 3.22 µM) | 6.25 (≈ 12.9 µM) | 3.12 (≈ 6.45 µM) | 6.25 (≈ 12.9 µM) | 6.25 (≈ 12.9 µM) | 1.56 (≈ 3.22 µM) | 6.25 (≈ 12.9 µM) | 3.12 (≈ 6.45 µM) | 3.12 (≈ 6.45 µM) | inactive | 11 | inactive | 3.12 (≈ 6.45 µM) | 6.25 (≈ 12.9 µM) | – | –
O=C(Nc1cccc(Cl)c1)N[C@@H]1CCN(CCC(Oc2ccc(C(F)(F)F)cc2)c2ccccc2)C1 (some centres undefined) | 3.12 (≈ 6.03 µM) | inactive | 3.12 (≈ 6.03 µM) | 3.12 (≈ 6.03 µM) | 1.56 (≈ 3.01 µM) | 3.12 (≈ 6.03 µM) | 6.25 (≈ 12.1 µM) | 3.12 (≈ 6.03 µM) | 3.12 (≈ 6.03 µM) | 1.56 (≈ 3.01 µM) | 1.56 (≈ 3.01 µM) | inactive | 9 | inactive | 3.12 (≈ 6.03 µM) | 3.12 (≈ 6.03 µM) | – | –
O=C(Nc1cccc(Cl)c1)NC1CCN(CCC(Oc2ccc(C(F)(F)F)cc2)c2ccccc2)CC1 (centres undefined) | 6.25 (≈ 11.7 µM) | inactive | 6.25 (≈ 11.7 µM) | 3.12 (≈ 5.87 µM) | 1.56 (≈ 2.93 µM) | – | > 12.5 | 0.78 (≈ 1.47 µM) | 0.78 (≈ 1.47 µM) | 3.12 (≈ 5.87 µM) | 3.12 (≈ 5.87 µM) | inactive | – | inactive | – | 6.25 (≈ 11.7 µM) | – | –
O=C(Nc1ccc(F)cc1)NC1CCN(CCC(Oc2ccc(C(F)(F)F)cc2)c2ccccc2)CC1 (racemic) | 6.25 (≈ 12.1 µM) | inactive | 6.25 (≈ 12.1 µM) | 3.12 (≈ 6.06 µM) | 3.12 (≈ 6.06 µM) | – | > 12.5 | 6.25 (≈ 12.1 µM) | 6.25 (≈ 12.1 µM) | 3.12 (≈ 6.06 µM) | 3.12 (≈ 6.06 µM) | inactive | – | inactive | – | 3.12 (≈ 6.06 µM) | – | –
O=C(Nc1cccc(Cl)c1)NC1CCN(CCC(Oc2cccc(F)c2)c2ccccc2)CC1 (racemic) | 6.25 (≈ 13 µM) | inactive | 6.25 (≈ 13 µM) | 6.25 (≈ 13 µM) | 1.56 (≈ 3.24 µM) | – | 12.5 (≈ 25.9 µM) | 6.25 (≈ 13 µM) | 6.25 (≈ 13 µM) | 3.12 (≈ 6.48 µM) | 3.12 (≈ 6.48 µM) | inactive | – | inactive | – | 6.25 (≈ 13 µM) | – | –
O=C(Nc1cccc(Cl)c1)NC1CCN(CCC(Oc2ccc(Cl)cc2)c2ccccc2)CC1 (racemic) | 3.12 (≈ 6.27 µM) | inactive | 3.12 (≈ 6.27 µM) | 3.12 (≈ 6.27 µM) | 1.56 (≈ 3.13 µM) | 12.5 (≈ 25.1 µM) | 6.25 (≈ 12.5 µM) | 3.12 (≈ 6.27 µM) | 3.12 (≈ 6.27 µM) | 1.56 (≈ 3.13 µM) | 1.56 (≈ 3.13 µM) | inactive | < 1 | inactive | 6.25 (≈ 12.5 µM) | 3.12 (≈ 6.27 µM) | – | –
